Columns and labels:
IL-12 = IL-12 production in PBMC (ELISA); type: cell-based; conditions: Homo sapiens, activator SAC + IFNγ, 48 h, read-out: IL12 macrophage IC50
Method: (§1) Peripheral blood mononuclear cells (PBMC) were isolated from the blood of healthy donors by the Lymphoprep gradient method. 200000 PBMC/well were cultured in RPMI1640 culture medium containing 5% heat inactivated human serum ([…]). at 37° C. and 10% CO2 in 96 well flat bottom microtiter plates. Cultures were set up as triplicates including a control group. Solutions of PDE4 inhibitors were prepared in DMSO at 10^−2 M and diluted in culture medium. Control cultures were treated with concentrations of DMSO equivalent to the inhibitor concentrations.
(§2) The culture supernatants of three independent experiments were pooled and cytokine activity in the supernatant was measured with commercially available ELISA test kits.
(§3) The data were calculated as percent inhibition/stimulation of the control without the compound and the IC50 value or EC50 value in case of stimulation was determined thereof.

IL-2 = IL-2 production in PBMC (ELISA); type: cell-based; conditions: Homo sapiens, activator mab anti-CD3, 24 h, read-out: IL2 T-cell IC50
Method: as §1, §2, §3

TNF-α = TNF-α production in PBMC (ELISA); type: cell-based; conditions: Homo sapiens, activator LPS, 48 h, read-out: TNF-α macrophage IC50
Method: as §1, §2, §3

IFN-γ = IFN-γ production in PBMC (ELISA); type: cell-based; conditions: Homo sapiens, activator mab anti-CD3, 48 h, read-out: IFN-γ T-cell IC50
Method: as §1, §2, §3

IL-10 = IL-10 production in PBMC (ELISA); type: cell-based, human; conditions: activator LPS, 48 h, stimulation; for EC50: Homo sapiens, read-out: IL10 macrophage EC50
Method: as §1, §2, §3

[1] = test system: T cells within the PBMC preparation; test: Effect of PDE4 inhibitors on T-cell proliferation (3H-thymidine incorporation, anti-CD3 stimulated PBMC); type: cell-based; conditions: Homo sapiens, 120 h, monoclonal antibody to CD3, 5 days, read-out: T-cell prol. IC50
Method: Peripheral blood mononuclear cells (PBMC) were isolated from the blood of healthy donors by the Lymphoprep gradient method. 200000 PBMC/well were cultured in RPMI1640 culture medium containing 5% heat inactivated human serum (AB pool) for 5 days at 37° C. and 10% CO2 in 96 well flat bottom microtiter plates. The T cells within the PBMC preparation were selectively stimulated with an monoclonal antibody to CD3. Cultures were set up as triplicates including a control group receiving no treatment. PDE4 inhibitors were dissolved in DMSO at 10^−2 M and diluted in culture medium. Control cultures were treated with DMSO equivalent to the inhibitor concentration. 18 hrs before the end of the assay, ^3H-thymidine was added to the cultures. The incorporation of radioactivity into the cells was then measured in a beta-counter.
The data of at least three independent experiments were calculated as percent inhibition of the control (mean ±SEM) without inhibitor.

SMILES	IC50 (IL-12) [nM]	IC50 (IL-2) [nM]	IC50 (TNF-α) [nM]	IC50 (IFN-γ) [nM]	EC50 (IL-10) [nM]	IC50 [1] [nM]	IL10 macrophage EC50 (IL-10)
CCOC(=O)Nc1ccc(CN2N=C(c3ccc(OC)c(OCC)c3)CCC2=O)cc1 [EMD 94360]	6	300	30	50	1	20	
CCOc1cc(C2=NN(Cc3ccc(NC(=O)c4cccnc4)cc3)C(=O)SC2)ccc1OC [EMD 95832]	0.5	200	9	10	20	50	
CCOc1cc(C2=NN(C(=O)c3ccc(NC(=O)c4cccnc4)cc3)CCC2)ccc1OC [EMD 125025]		2	3	7		6	no effect
CCOC(=O)Nc1ccc(C(=O)N2CCCC(c3ccc(OC)c(OCC)c3)=N2)cc1 [EMD 125059]		60	30	8	8	40	
CCOc1cc(C2=NN(C(=O)c3ccc(NC(=O)c4ccc(OC)cc4)cc3)CCC2)ccc1OC [EMD 219901]		3	2	5	1	7	
COc1ccc(C2CNC(=O)C2)cc1OC1CCCC1 (stereo not drawn) [Rolipram, reference compound]	> 100	700	600	1000	50	300	
